The test system of experiment [1] is TNFa. As to the kind of experiment: TNFa ELISA, PBMC, Resiquimod (R848) stimulated. It counts as cell-based. The settings on record: 10 pt curve. (In general: An ELISA detects its analyte on a solid surface through an enzyme-linked reagent.)
The subject of experiment [2] is IL23-p19. As to the kind of experiment: LPS induced IL23p19 in THP-1 cells (IFNγ primed), sandwich ELISA. The format is cell-based. The settings on record: Homo sapiens; THP-1 cells primed with IFNγ, LPS 1 μg/mL, 10 pt curve; read-out: IL23-p19 ELISA, THP1-IFNy, LPS, 10 pt. The source says: LPS Induced IL23p19 in THP-1 Cells (with IFNγ Primed) Assay
THP-1 Cells (ATCC, Cat #TIB-202), Dimethyl Sulfoxide (DMSO) (Sigma-Aldrich, Cat #D2650), RPMI 1640 (Cellgro, Cat #10-040-CM), Fetal Bovine Serum (Sigma, Cat #F4135), Albumin From Bovine Serum (BSA) (Sigma-Aldrich, Cat #A7906), LPS (Serotype K-235, Sigma, Product Number L 2143), IFNγ (Peprotech, Cat #300-02), Capture antibody: Human IL-23p19 ELISA (e-Bioscience, Cat. #14-7238-85), Detection antibody: Primary Mouse Biotinylated anti-human IL-12(p40/p70) (e-Bioscience, Cat. #13-7129-85), Secondary HRP-conjugated Streptavidin (R&D Systems, Cat #DY998), 1×PBST Washing Buffer (PBS-Tween tablet) (VWR International, Cat #80058-558), ELISA Blocking Buffer (PBS with 1% BSA), ELISA Dilution Buffer (PBS with 1% BSA), 384 Well Flat-Bottom, MaxiSorp Black Immuno Plates (Thermo Scientific, Cat #12-565-346), 384 Well Flat-Bottom, White Tissue Culture Plates (Thermo Scientific, Cat #12-565-343), Super Signal ELISA Pico Chemiluminescent Substrate (Thermo Scientific, Cat #37070), Cell Titer Glo reagent (Promega, Cat #G7573), Positive control, IKK2VI inhibitor (Calbiochem, Cat #401483), AquaMax 4000 plate washer (Molecular Devices), Luminometer, Wallac Victor2 1420 Multilabel Counter.
On day 1, 50K/well THP-1 cells were seeded and primed with IFNγ (50 ng/mL) in 384-well plates for about 18 hours in RPMI media with 10% FBS. On day 2, the compound was serially diluted in DMSO from 5 mM in 3-fold dilutions, and then diluted 1:125 in RPMI media with 10% FBS. 50 μL/well 2× compound was added to 50 μL/well THP-1 cells (with IFNγ primed) in duplicate in 384 well tissue culture plates. The cells were pre-incubated with compound for 1 hour at 37° C., 5% CO2 before addition of 10 μL/well 11×LPS to give a final concentration of 1 μg/mL LPS. Day 3, after stimulation for 18 hours at 37° C., 5% CO2, the assay plate was centrifuged and 70 μL/well supernatant was harvested. IL-23p19 protein in 70 μL/well of supernatant was measured by sandwich ELISA, and 25 μl/well Cell Titer Glo reagent was added to the remaining cells to measure compound toxicity.
Human IL-23p19 Sandwich ELISA:
Maxisorp immuno ELISA plates were pre-coated with 25 μL/well of anti-IL-23p19 capture antibody (2.5 ug/mL) in PBS overnight at room temperature. After washing with 1×PBST, the plates were blocked using 100 μL/well of 1% BSA in PBS for 2 hours at room temperature. The plates were washed three times with 1×PBST and 70 μL/well supernatant were added. The plates were incubated at room temperature for 2 hours with shaking and washed three times with 1×PBST. 25 μL/well of biotin labeled anti-IL-12(p40/p70) detection antibody (100 ng/mL) in PBS with 1% BSA was added and the plates were incubated at room temperature for 2 hours with shaking. After washing three times with 1×PBST, 25 μL/well of streptavidin-HRP (1:200) in PBS with 1% BSA was added and the plates were incubated at room temperature for 20 minutes with shaking. The plates were washed three times with 1×PBST and 25 μL/well of Super Signal ELISA Pico Chemiluminescent Substrate were added. The plates were read with a luminometer, and the chemiluminescence values were entered into Athena (Rigel) for curve fitting, EC50 calculation, and database storage.

Experiment [3] has as its target IRAK1 (Homo sapiens, UniProt P51617). As to the kind of experiment: IRAK1 ADP-Glo Kinase assay. The format is biochemical. The settings on record: 8 pt curve. For orientation: In ADP-Glo the light output rises with the ADP produced.
Experiment [4] concerns the target T1, IRAK4 (Homo sapiens, UniProt Q9NWZ3).
T1 construct: purchased Signalchem I12-10G-20
T1 sequence (Q9NWZ3 1-460): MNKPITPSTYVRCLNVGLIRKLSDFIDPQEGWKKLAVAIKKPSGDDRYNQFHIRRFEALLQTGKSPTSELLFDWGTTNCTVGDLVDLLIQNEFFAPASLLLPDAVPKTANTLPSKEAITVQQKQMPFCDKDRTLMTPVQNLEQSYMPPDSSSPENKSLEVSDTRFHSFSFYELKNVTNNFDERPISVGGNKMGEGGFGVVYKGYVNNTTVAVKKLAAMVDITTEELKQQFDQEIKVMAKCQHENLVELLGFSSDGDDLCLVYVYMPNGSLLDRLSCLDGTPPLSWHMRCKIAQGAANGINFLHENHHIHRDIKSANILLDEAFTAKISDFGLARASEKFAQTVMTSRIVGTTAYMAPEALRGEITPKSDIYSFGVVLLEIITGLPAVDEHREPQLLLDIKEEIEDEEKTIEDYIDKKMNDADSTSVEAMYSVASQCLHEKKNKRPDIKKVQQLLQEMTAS
As to the kind of experiment: IRAK4 ADP-Glo assay. It counts as biochemical. As to conditions: 8 pt curve; read-out: IRAK4 ADP-Glo Kinase, 8 pt. As to the method: IRAK4 Kinase Enzyme (Signalchem, I12-10G-20); 0.1M DTT (Signalchem, D86-09B); MBP Substrate (Signalchem, M42-51N); ADP Glo (Promega, V9101); 1M MgCl2 (Teknova, M03304); 1M Tris-HCl pH7.4 (Teknova, T1074); BSA (Sigma (A3059); Distilled H2O
Wallac Victor2 1420 Multilabel Counter
The ADP-Glo™ reagents were thawed at ambient temperature. The Kinase Detection Reagent was prepared by mixing kinase detection buffer with the lyophilized kinase detection substrate, and set aside.
A stock volume of 5× Reaction Kinase Buffer was made with a final concentration of 100 mM MgCl2, 200 mM Tris-HCl, and 0.5 mg/ml of BSA, in distilled H2O with a final pH7.4. A 2× working stock volume of Reaction Kinase Buffer was made containing a final concentration of […].
The components of IRAK4 Enzyme were thawed on ice. Diluted IRAK4 in 1× Kinase Reaction Buffer (diluted from 2× buffer) was prepared at […]. A […] working stock ATP Assay Solution was prepared in 1× Kinase Reaction Buffer (diluted from 2× buffer).
The compound was diluted in DMSO from 250 µM in 4-fold series dilutions for 8 points. Then diluted 1:5 in 2× Reaction Buffer in a 96 well plate. 1.01 was transferred to a 384 well plate in duplicate. […] 1 μl of 1 mg/ml stock solution of MBP substrate was added NOTE: MBP can be combined with ATP mix with equal volume and then added at 2 d/well. Final reaction volume was 5 μl.
The plate was centrifuged and the reaction mixture was incubated at room temperature for 60 minutes or at 30° C. for 30 minutes.
The reaction was terminated and the remaining ATP was depleted by adding 5 μl of ADP-Glo™ Reagent. The 384-well plate was centrifuged and then the reaction mixture was incubated for another 40 minutes at ambient temperature.
10 μl of the Kinase Detection Reagent was added. The plate was centrifuged and then the reaction mixture was incubated for another 30 minutes at ambient temperature.
The 384-well reaction plate was read using the WALLAC plate reader (Luminescence 0.1s).

Experiment [5] relates to TNFa. Description: TNFa ELISA, dendritic cells, Gardiquimod stimulated. It counts as cell-based. The settings on record: Homo sapiens, Dendritic cell, 10 pt curve.

IRAK1, sequence (P51617 whole entry): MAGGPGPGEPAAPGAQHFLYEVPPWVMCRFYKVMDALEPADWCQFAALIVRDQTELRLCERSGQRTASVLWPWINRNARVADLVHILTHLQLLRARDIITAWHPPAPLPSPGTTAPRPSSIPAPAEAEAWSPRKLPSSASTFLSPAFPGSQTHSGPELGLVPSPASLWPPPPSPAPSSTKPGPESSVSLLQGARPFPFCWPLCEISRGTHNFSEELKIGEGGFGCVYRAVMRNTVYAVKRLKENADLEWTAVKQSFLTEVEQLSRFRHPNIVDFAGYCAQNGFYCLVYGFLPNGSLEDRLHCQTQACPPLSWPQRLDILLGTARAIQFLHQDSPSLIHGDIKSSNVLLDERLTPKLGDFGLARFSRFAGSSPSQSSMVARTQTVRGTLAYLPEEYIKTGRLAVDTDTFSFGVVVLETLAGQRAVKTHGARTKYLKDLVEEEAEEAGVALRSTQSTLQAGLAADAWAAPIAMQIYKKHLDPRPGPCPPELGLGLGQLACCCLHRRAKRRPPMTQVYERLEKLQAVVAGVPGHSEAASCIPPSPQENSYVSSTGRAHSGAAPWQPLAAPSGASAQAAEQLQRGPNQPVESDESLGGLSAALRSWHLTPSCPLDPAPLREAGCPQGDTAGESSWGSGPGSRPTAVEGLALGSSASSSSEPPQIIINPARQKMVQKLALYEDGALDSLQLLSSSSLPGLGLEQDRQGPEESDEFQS

Turning to `O=C1CC[C@@H](COc2nccc3cc4c(=O)[nH]cc(C5CCCC5)c4cc23)N1` [I-13, (S)-4-cyclopentyl-6-((5-oxopyrrolidin-2-yl)methoxy)pyrido[3,4-g]isoquinolin-1(2H)-one], the EC50 in experiment [1] was 304 nM; in experiment [2] it was 8470 nM. The IC50 worked out at 6260 nM in experiment [3] and 55.9 nM in experiment [4].
As to `O=C1CC[C@@H](COc2nccc3cc4c(=O)[nH]cc(C5CC5)c4cc23)N1` [I-14, (S)-4-cyclopropyl-6-((5-oxopyrrolidin-2-yl)methoxy)pyrido[3,4-g]isoquinolin-1(2H)-one], the EC50 in experiment [1] was 187 nM; in experiment [5], 196 nM; in experiment [2], 956 nM. Also, the IC50 in experiment [3] amounted to 4770 nM; in experiment [4] it was 4.9 nM.
Take `CC(C)c1c[nH]c(=O)c2cc3ccnc(OC[C@@H]4CCC(=O)N4)c3cc12` [I-15, (S)-4-isopropyl-6-((5-oxopyrrolidin-2-yl)methoxy)pyrido[3,4-g]isoquinolin-1(2H)-one]: the EC50 in experiment [1] came out at 68.3 nM; in experiment [2], 501 nM. For the same molecule, the IC50 in experiment [3] was 8370 nM; in experiment [4], 6.2 nM.
Consider `O=C1CC[C@@H](COc2nccc3cc4c(=O)[nH]cc(CC(F)F)c4cc23)N1` [I-17, (S)-4-(2,2-difluoroethyl)-6-((5-oxopyrrolidin-2-yl)methoxy)pyrido[3,4-g]isoquinolin-1(2H)-one], for which the figures for the EC50 in experiment [1], in experiment [5] and in experiment [2] were 360 nM, 607 nM and 16100 nM, respectively. Further, the IC50 worked out at 10600 nM in experiment [3] and 21.4 nM in experiment [4].
`CC(C)(O)c1c[nH]c(=O)c2cc3ccnc(OC[C@@H]4CCC(=O)N4)c3cc12` [I-20, (S)-4-(2-hydroxypropan-2-yl)-6-((5-oxopyrrolidin-2-yl)methoxy)pyrido[3,4-g]isoquinolin-1(2H)-one]: the EC50 turned out to be 6970 nM in experiment [1] and 38700 nM in experiment [2]. The IC50 in experiment [4] is 303 nM.
As to `CC#Cc1c[nH]c(=O)c2cc3ccnc(OC[C@@H]4CCC(=O)N4)c3cc12` [I-24, (S)-6-((5-oxopyrrolidin-2-yl)methoxy)-4-(prop-1-yn-1-yl)pyrido[3,4-g]isoquinolin-1(2H)-one], the EC50 in experiment [1] was 283 nM; in experiment [5] it was 316 nM; in experiment [2] it was 377 nM. For the same molecule, the IC50 in experiment [4] was 55.7 nM.
For `Cc1c[nH]c(=O)c2cc3ccnc(OC[C@@H]4CCC(=O)N4)c3cc12` [I-25, (S)-4-methyl-6-((5-oxopyrrolidin-2-yl)methoxy)pyrido[3,4-g]isoquinolin-1(2H)-one], in that order: 392 nM, 6220 nM, 79.6 nM and 69.2 nM.
With `O=C1CC[C@@H](COc2nccc3cc4c(=O)[nH]cc(C(F)(F)F)c4cc23)N1` [I-30, (S)-6-((5-oxopyrrolidin-2-yl)methoxy)-4-(trifluoromethyl)pyrido[3,4-g]isoquinolin-1(2H)-one], the EC50 in experiment [1] turned out to be 2020 nM; in experiment [5] it was 18300 nM; in experiment [2], 2260 nM. Moreover, the IC50 in experiment [4] came out at 212 nM.
With `CC[C@@H]1[C@H](F)C(=O)N[C@@H]1COc1nccc2cc3c(=O)[nH]cc(I)c3cc12` [I-44, 6-(((2S,3S,4S)-3-ethyl-4-fluoro-5-oxopyrrolidin-2-yl)methoxy)-4-iodopyrido[3,4-g]isoquinolin-1(2H)-one], the EC50 was determined as 5.2 nM in experiment [1] and 2 nM in experiment [5]. Also, the IC50 in experiment [3] amounted to 27.7 nM; in experiment [4], 4.2 nM.
For `CC[C@@H]1[C@H](F)C(=O)N[C@@H]1COc1nccc2cc3c(=O)[nH]cc(C)c3cc12` [I-45, 6-(((2S,3S,4S)-3-ethyl-4-fluoro-5-oxopyrrolidin-2-yl)methoxy)-4-methylpyrido[3,4-g]isoquinolin-1(2H)-one], in that order: 2.7 nM, 3.4 nM, 18 nM and 5.5 nM.
With `CC[C@@H]1[C@H](F)C(=O)N[C@@H]1COc1nccc2cc3c(=O)[nH]ccc3cc12` [I-46, 6-(((2S,3S,4S)-3-ethyl-4-fluoro-5-oxopyrrolidin-2-yl)methoxy)pyrido[3,4-g]isoquinolin-1(2H)-one], the values for the EC50 in experiment [1] and in experiment [5] were 295 nM and 239 nM, respectively. Further, the IC50 in experiment [3] came to 1120 nM; in experiment [4] it was 6.5 nM.
For `CC[C@@H]1[C@H](F)C(=O)N[C@@H]1COc1nccc2cc3c(=O)[nH]cc(C#N)c3cc12` [I-47, 6-(((2S,3S,4S)-3-ethyl-4-fluoro-5-oxopyrrolidin-2-yl)methoxy)-1-oxo-1,2-dihydropyrido[3,4-g]isoquinoline-4-carbonitrile], in that order: 78.8 nM, 78.2 nM, 531 nM and 35 nM.

For the origin of these results see US12459941B2, “Tricyclic IRAK inhibitors” (Rigel Pharmaceuticals, Inc., priority 2022, dated 2025).
